Where “and” joins values, the source holds several entries; their conditions need not be identical. Equal entries are not always repeated.
Columns and labels:
Experiment in all cases: In-cell proteome-wide competitive ABPP, HEK293: other DUBs and proteins
[1] = target: DUBs and other proteins in HEK293 cells (Homo sapiens, UniProt P51784); conditions: replicates A-C; for Log2 reporter intensity values: USP11: competition with ABP 2, DMSO substract (FC); for Log2 reporter intensity values: USP11, DMSO subtracted
[2] = target: DUBs and other proteins in HEK293 cells (Homo sapiens, UniProt Q96FW1); conditions: replicates A-C; for Log2 reporter intensity values: OTUB1: competition with ABP 2, DMSO substract (FC); for Log2 reporter intensity values: OTUB1, DMSO subtracted
[3] = target: T1, DUBs and other proteins in HEK293 cells (Homo sapiens, UniProt P40818); conditions: for Log2 reporter intensity values: USP8: competition with ABP 2, DMSO substract (FC), replicates A-B; for Log2 reporter intensity values: USP8, DMSO subtracted
T1 sequence (P40818 1-1118): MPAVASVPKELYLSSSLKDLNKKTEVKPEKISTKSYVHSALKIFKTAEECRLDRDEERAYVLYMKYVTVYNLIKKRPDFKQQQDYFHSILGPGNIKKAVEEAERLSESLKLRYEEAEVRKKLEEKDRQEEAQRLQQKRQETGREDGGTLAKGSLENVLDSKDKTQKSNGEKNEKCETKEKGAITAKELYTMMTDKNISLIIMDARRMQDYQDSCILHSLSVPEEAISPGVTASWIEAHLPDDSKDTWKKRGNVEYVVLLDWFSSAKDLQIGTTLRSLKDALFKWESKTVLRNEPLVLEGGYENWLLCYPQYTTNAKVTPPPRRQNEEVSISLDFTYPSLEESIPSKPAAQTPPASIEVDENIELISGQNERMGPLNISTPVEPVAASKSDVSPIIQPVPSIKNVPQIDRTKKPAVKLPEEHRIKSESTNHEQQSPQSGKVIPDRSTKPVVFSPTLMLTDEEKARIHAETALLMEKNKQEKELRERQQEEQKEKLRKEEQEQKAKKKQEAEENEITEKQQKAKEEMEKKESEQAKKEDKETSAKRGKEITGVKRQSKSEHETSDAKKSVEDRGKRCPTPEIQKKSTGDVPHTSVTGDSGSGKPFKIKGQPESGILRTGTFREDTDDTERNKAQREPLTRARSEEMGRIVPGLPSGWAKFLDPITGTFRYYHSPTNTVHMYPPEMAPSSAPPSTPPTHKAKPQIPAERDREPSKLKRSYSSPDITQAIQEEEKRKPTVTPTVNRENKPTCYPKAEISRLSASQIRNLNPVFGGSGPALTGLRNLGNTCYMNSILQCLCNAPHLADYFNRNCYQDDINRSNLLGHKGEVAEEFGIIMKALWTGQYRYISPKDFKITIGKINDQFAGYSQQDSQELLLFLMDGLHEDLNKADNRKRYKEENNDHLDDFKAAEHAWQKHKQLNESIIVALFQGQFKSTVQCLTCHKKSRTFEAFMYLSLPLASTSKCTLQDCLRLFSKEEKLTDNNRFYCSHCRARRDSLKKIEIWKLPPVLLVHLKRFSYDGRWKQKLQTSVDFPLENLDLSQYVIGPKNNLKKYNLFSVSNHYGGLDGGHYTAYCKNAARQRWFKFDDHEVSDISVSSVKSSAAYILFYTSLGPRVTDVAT

[4] = target: DUBs and other proteins in HEK293 cells (Homo sapiens, UniProt Q6P2Q9); conditions: replicates A-C; for Log2 reporter intensity values: PRPF8: competition with ABP 2, DMSO substract (FC); for Log2 reporter intensity values: PRPF8, DMSO subtracted
[5] = target: T2, DUBs and other proteins in HEK293 cells (Homo sapiens, UniProt Q96RU2); conditions: replicates A-C; for Log2 reporter intensity values: USP28: competition with ABP 2, DMSO substract (FC); for Log2 reporter intensity values: USP28, DMSO subtracted
T2 sequence (Q96RU2 1-1077): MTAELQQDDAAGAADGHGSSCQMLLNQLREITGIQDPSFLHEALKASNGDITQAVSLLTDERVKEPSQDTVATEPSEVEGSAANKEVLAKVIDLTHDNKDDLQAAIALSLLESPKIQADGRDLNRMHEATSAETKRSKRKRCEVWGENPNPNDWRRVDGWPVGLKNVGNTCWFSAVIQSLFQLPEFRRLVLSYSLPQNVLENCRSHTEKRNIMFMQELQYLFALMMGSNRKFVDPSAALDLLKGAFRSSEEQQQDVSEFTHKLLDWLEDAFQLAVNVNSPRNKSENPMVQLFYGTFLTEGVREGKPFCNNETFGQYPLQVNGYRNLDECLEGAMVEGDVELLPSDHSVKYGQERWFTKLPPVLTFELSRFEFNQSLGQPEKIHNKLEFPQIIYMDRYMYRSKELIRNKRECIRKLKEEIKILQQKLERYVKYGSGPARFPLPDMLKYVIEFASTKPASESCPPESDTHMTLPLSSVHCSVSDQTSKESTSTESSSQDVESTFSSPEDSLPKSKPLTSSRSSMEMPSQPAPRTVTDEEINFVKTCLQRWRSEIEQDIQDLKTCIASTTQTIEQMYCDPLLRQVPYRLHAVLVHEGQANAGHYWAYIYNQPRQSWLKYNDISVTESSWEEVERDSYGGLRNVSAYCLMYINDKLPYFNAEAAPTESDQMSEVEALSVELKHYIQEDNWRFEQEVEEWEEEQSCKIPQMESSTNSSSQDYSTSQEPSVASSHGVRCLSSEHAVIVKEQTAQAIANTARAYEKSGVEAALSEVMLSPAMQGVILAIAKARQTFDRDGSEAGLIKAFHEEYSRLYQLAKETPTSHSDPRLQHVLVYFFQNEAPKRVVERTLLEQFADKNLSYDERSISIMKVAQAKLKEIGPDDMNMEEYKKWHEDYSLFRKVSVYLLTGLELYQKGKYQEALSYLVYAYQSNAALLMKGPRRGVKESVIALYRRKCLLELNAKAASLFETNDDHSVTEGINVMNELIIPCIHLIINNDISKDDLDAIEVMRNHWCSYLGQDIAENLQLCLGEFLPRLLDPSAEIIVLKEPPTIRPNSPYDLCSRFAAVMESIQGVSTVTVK

DUBs and other proteins in HEK293 cells (Homo sapiens, UniProt Q96FW1), sequence (Q96FW1 whole entry): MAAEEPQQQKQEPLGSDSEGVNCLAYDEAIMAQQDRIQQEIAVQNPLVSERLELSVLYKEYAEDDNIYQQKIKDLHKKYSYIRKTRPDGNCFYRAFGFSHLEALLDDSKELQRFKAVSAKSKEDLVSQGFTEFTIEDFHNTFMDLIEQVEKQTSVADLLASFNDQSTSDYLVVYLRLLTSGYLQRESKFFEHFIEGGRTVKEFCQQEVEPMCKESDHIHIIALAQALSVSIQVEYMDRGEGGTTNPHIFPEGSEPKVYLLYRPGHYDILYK
DUBs and other proteins in HEK293 cells (Homo sapiens, UniProt P51784), sequence (P51784 whole entry): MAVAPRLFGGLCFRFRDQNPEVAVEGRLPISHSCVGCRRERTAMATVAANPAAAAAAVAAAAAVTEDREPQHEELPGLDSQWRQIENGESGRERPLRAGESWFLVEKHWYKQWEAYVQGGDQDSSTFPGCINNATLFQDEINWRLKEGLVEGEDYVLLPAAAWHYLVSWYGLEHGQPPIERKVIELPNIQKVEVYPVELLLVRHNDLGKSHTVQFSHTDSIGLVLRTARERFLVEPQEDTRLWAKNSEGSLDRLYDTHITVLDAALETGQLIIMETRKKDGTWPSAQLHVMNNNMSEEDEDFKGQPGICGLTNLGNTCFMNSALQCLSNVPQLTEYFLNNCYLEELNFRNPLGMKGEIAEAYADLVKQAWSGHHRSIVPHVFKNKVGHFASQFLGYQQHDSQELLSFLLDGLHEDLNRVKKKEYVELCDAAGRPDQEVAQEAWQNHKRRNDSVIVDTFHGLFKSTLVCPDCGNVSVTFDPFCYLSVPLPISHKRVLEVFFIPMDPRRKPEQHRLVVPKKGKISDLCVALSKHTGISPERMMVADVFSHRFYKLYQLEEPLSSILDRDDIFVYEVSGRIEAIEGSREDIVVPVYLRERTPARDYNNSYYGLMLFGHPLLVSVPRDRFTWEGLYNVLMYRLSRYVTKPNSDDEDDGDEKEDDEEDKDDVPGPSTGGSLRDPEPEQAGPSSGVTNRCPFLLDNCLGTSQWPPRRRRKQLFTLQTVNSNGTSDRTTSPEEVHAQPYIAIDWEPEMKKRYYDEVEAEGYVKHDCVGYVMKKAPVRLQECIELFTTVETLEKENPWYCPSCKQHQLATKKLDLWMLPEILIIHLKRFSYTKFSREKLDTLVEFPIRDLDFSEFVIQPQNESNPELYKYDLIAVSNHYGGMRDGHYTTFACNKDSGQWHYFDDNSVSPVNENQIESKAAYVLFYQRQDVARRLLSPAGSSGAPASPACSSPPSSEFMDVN

For `N#CN1CCC[C@@H]1C(=O)N1CCc2c(-c3c[nH]c4ncccc34)cccc21` [Compound 3], the “Log2 reporter intensity values: USP11” value ([1]; 3 at 1 μM) was 1.117 and 1.058 and 1.05, the “Log2 reporter intensity values: USP11” value ([1]; 3 at 4 μM) was 0.8158 and 0.9889 and 0.9502 and the “Log2 reporter intensity values” ([1]; 3_1 μM) was 0.1164 and 0.05763 and 0.04999. The “Log2 reporter intensity values” ([1]; 3_4 μM) was -0.1845 and -0.01139 and -0.05014, the “Log2 reporter intensity values” ([1]; 3 at 1 μM) was 0.1593 and 0.08129 and 0.07083 and the “Log2 reporter intensity values” ([1]; 3 at 4 μM) was -0.2937 and -0.01604 and -0.0737. The “Log2 reporter intensity values: OTUB1” value ([2]; 3 at 1 μM) was 0.9728 and 1.005 and 0.986, the “Log2 reporter intensity values: OTUB1” value ([2]; 3 at 4 μM) was 1.016 and 1.059 and 1.053 and the “Log2 reporter intensity values” ([2]; 3_1 μM) was -0.02736 and 0.004799 and -0.01417. The “Log2 reporter intensity values” ([2]; 3_4 μM) was 0.01602 and 0.05888 and 0.05243, the “Log2 reporter intensity values” ([2]; 3 at 1 μM) was -0.03984 and 0.007079 and -0.02041 and the “Log2 reporter intensity values” ([2]; 3 at 4 μM) was 0.0231 and 0.08271 and 0.07389. For the same molecule, the “Log2 reporter intensity values: USP8” value ([3]; 3 at 1 μM) was 0.95 and 1.134, the “Log2 reporter intensity values: USP8” value ([3]; 3 at 4 μM) was 0.8355 and 0.9159 and the “Log2 reporter intensity values” ([3]; 3_1 μM, replicates A-B (C NaN)) was -0.05241 and 0.1313. The “Log2 reporter intensity values” ([3]; 3_4 μM, replicates A-B (C NaN)) was -0.167 and -0.08651, the “Log2 reporter intensity values” ([3]; 3 at 1 μM, replicates A-C) was -0.07394 and 0.1811 and the “Log2 reporter intensity values” ([3]; 3 at 4 μM, replicates A-C) was -0.2593 and -0.1267. For the same molecule, the “Log2 reporter intensity values: PRPF8” value ([4]; 3 at 1 μM) was 0.9503 and 0.8885 and 0.9546, the “Log2 reporter intensity values: PRPF8” value ([4]; 3 at 4 μM) was 0.9411 and 0.9829 and 0.9624 and the “Log2 reporter intensity values” ([4]; 3_1 μM) was -0.0499 and -0.1118 and -0.04563. The “Log2 reporter intensity values” ([4]; 3_4 μM) was -0.05909 and -0.0173 and -0.03782, the “Log2 reporter intensity values” ([4]; 3 at 1 μM) was -0.07348 and -0.1706 and -0.06701 and the “Log2 reporter intensity values” ([4]; 3 at 4 μM) was -0.08751 and -0.02483 and -0.05526. The “Log2 reporter intensity values: USP28” value ([5]; 3 at 1 μM) was 1.351 and 1.11 and 0.8433, the “Log2 reporter intensity values: USP28” value ([5]; 3 at 4 μM) was 0.6356 and 0.4265 and 0.9775 and the “Log2 reporter intensity values” ([5]; 3_1 μM) was 0.3111 and 0.07023 and -0.1965. For the same molecule, the “Log2 reporter intensity values” ([5]; 3_4 μM) was -0.4041 and -0.6132 and -0.06225, the “Log2 reporter intensity values” ([5]; 3 at 1 μM) was 0.4339 and 0.1505 and -0.246 and the “Log2 reporter intensity values” ([5]; 3 at 4 μM) was -0.6539 and -1.229 and -0.03288.

With `CC(=O)O/N=C1\C(=O)N(Cc2cc(Cl)ccc2Cl)c2ccc(Cl)cc21` [LDN] the “Log2 reporter intensity values: USP11” value ([1]; LDN at 5 μM) was 1.03 and 1.059 and 1.019, the “Log2 reporter intensity values: USP11” value ([1]; LDN at 25 μM) was 1.058 and 0.9885 and 1.048 and the “Log2 reporter intensity values” ([1]; LDN at 5 μM) was 0.04194 and 0.08295 and 0.02661. The “Log2 reporter intensity values” ([1]; LDN at 25 μM) was 0.082 and -0.01664 and 0.06827, the “Log2 reporter intensity values” ([1]; LDN_5 μM) was 0.02916 and 0.05885 and 0.01828 and the “Log2 reporter intensity values” ([1]; LDN_25 μM) was 0.05815 and -0.0118 and 0.04812. The “Log2 reporter intensity values: OTUB1” value ([2]; LDN at 5 μM) was 1.034 and 1.042 and 1.019, the “Log2 reporter intensity values: OTUB1” value ([2]; LDN at 25 μM) was 1.066 and 0.9796 and 1.019 and the “Log2 reporter intensity values” ([2]; LDN at 5 μM) was 0.04805 and 0.05934 and 0.02777. The “Log2 reporter intensity values” ([2]; LDN at 25 μM) was 0.09269 and -0.02973 and 0.02677, the “Log2 reporter intensity values” ([2]; LDN_5 μM) was 0.03375 and 0.04187 and 0.01932 and the “Log2 reporter intensity values” ([2]; LDN_25 μM) was 0.06623 and -0.02052 and 0.01861. The “Log2 reporter intensity values: USP8” value ([3]; LDN at 5 μM) was 1.057 and 1.015, the “Log2 reporter intensity values: USP8” value ([3]; LDN at 25 μM) was 1.052 and 0.9465 and the “Log2 reporter intensity values” ([3]; LDN at 5 μM, replicates A-C) was 0.08034 and 0.0217. For the same molecule, the “Log2 reporter intensity values” ([3]; LDN at 25 μM, replicates A-C) was 0.07275 and -0.07932, the “Log2 reporter intensity values” ([3]; LDN_5 μM, replicates A-B (C NaN)) was 0.05482 and 0.0127 and the “Log2 reporter intensity values” ([3]; LDN_25 μM, replicates A-B (C NaN)) was 0.04927 and -0.05595. The “Log2 reporter intensity values: PRPF8” value ([4]; LDN at 5 μM) was 0.8673 and 0.9446 and 0.9404, the “Log2 reporter intensity values: PRPF8” value ([4]; LDN at 25 μM) was 0.9445 and 0.9891 and 0.9788 and the “Log2 reporter intensity values” ([4]; LDN at 5 μM) was -0.2054 and -0.08218 and -0.0886. For the same molecule, the “Log2 reporter intensity values” ([4]; LDN at 25 μM) was -0.08236 and -0.01582 and -0.0309, the “Log2 reporter intensity values” ([4]; LDN_5 μM) was -0.1329 and -0.05561 and -0.05981 and the “Log2 reporter intensity values” ([4]; LDN_25 μM) was -0.05573 and -0.01115 and -0.02143. For the same molecule, the “Log2 reporter intensity values: USP28” value ([5]; LDN at 5 μM) was 1.021 and 0.7867 and 1.08, the “Log2 reporter intensity values: USP28” value ([5]; LDN at 25 μM) was 0.7474 and 0.7545 and 1.193 and the “Log2 reporter intensity values” ([5]; LDN at 5 μM) was 0.03026 and -0.3461 and 0.1114. For the same molecule, the “Log2 reporter intensity values” ([5]; LDN at 25 μM) was -0.42 and -0.4063 and 0.2545, the “Log2 reporter intensity values” ([5]; LDN_5 μM) was -0.01852 and -0.253 and 0.04055 and the “Log2 reporter intensity values” ([5]; LDN_25 μM) was -0.2923 and -0.2852 and 0.1532.

Reference: PMC7366380, “Discovery of a Potent and Selective Covalent Inhibitor and Activity-Based Probe for the Deubiquitylating Enzyme UCHL1, with Antifibrotic Activity” (Journal of the American Chemical Society, 2020)
